Consider 1 compound from paper PMC6934184, “Selective DNA-PKcs inhibition extends the therapeutic index of localized radiotherapy and chemotherapy” (The Journal of Clinical Investigation, 2019).

This assay has as its target T1, TLK2 (Homo sapiens, UniProt Q86UE8).
T1 construct: purchased Thermo Fisher Scientific (Life Technologies) SelectScreen
The assay is described as follows: SelectScreen LanthaScreen. The class given is binding. Particulars: read-out: % displacement. A digest of the protocol: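 NU5455 was profiled across the SelectScreen Broad panel of kinase activity and binding assays. Z'LYTE reactions such as CSF1R ran at apparent Km ATP, while the Adapta CAMK1 assay used ATP listed as 10. Values are given as percent.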

T1 sequence (Q86UE8 whole entry): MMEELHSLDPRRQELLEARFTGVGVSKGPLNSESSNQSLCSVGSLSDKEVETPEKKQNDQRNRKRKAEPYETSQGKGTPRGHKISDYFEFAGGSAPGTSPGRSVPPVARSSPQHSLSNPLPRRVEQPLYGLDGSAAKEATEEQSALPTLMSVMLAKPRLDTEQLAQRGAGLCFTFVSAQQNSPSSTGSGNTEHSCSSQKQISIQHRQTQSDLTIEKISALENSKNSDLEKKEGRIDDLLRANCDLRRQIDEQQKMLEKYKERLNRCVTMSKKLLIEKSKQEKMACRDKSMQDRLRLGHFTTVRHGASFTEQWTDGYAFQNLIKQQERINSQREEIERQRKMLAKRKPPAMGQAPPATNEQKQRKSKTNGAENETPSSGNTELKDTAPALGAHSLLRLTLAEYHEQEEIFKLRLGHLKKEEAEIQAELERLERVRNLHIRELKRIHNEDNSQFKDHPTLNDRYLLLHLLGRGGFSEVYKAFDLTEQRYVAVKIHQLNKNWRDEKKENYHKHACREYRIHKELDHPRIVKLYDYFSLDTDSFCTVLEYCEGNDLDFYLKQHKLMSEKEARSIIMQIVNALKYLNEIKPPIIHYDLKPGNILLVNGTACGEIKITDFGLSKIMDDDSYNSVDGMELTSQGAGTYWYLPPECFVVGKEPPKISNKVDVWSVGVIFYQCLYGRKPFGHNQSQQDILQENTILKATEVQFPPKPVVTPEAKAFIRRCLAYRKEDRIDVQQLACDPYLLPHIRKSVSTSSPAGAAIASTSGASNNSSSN

On to `CN(C(=O)CN1CCOCC1)c1ccc2sc3c(-c4cccc5c(=O)cc(N6CC7CCC(C6)O7)oc45)cccc3c2c1` [NU5455], for which the inhibition at 1 µM is -0.3%.
